Measured values published in PMC11274883, “Anticancer Effect of Pt^[sequence], Pt^II5MESS, Pt^II56MESS and Their Platinum(IV)-Dihydroxy Derivatives against Triple-Negative Breast Cancer and Cisplatin-Resistant Colorectal Cancer” (Cancers, 2024).

Key:
Assay type in all cases: cell-based
MCF−7 = assay: WST-1 cytotoxicity, 72 h
Protocol: (§1) Cells were seeded in 96-well flat-bottom culture plates at a concentration of 1000 cells per well. […] After 72 h, the medium was removed and replaced with new medium. The cell viability reagent WST-1 (10 µL, Roche Diagnostics, Indianapolis, IN, USA) was added to each well. After an hour, the absorbance was measured at 450 nm using a versatile microplate reader (Bio-strategy, Campbellfield, VIC, Australia). Three separate experiments were performed, each with n = 3 replicates. GraphPad prism 10 was used to calculate apparent IC50 values using the nonlinear regression model Y = Bottom + (Top-Bottom)/(1 + 10^(X-LogIC50)) where Top and bottom are plateaus in the y-axis (% survival).

ADDP = assay: WST-1 cytotoxicity, 72 h
Protocol: as §1

MDA−MB−231 = assay: WST-1 cytotoxicity, 72 h
Protocol: as §1

MDA−MB−231 cells [1] = assay: TMRE mitochondrial membrane potential assay; details: complexes at IC50, FCCP 20 µM
Protocol: (§2) Cells were then treated with an IC50 drug concentration for each complex. At 24, 48 or 72 h, DMEM was removed, and cells were washed with PBS. Then, cells were incubated with 1 µM tetramethylrhodamine, ethyl ester (TMRE) stain for 30 min. TMRE was then removed, and cells were washed twice with PBS (0.2% BSA), after which phenol red-free media was added. […] The cells were then stained with TMRE, as described above, and the resulting solution was scanned for fluorescence. Three independent experiments in triplicates were implemented.

HT29 cells [2] = assay: TMRE mitochondrial membrane potential assay; details: complexes at IC50, FCCP 20 µM
Protocol: as §2

MDA−MB−231 cells [3] = assay: Cellular uptake of Pt by ICP-MS; details: for Intracellular Concentration: MDA−MB−231, 3 µM; for Intracellular/extracellular ratio: MDA−MB−231, extracellular 3 µM
Protocol: (§3) A final concentration of 10^6 cells/well of MDA−MB−231 and HT29 cells were seeded in 6-well plates and incubated overnight to adhere. The cells were then treated with a final concentration of 3 µM of either Pt^II or Pt^IV complexes. After 0, 0.5, 1, 3, 6, 12, 24 or 30 h, the medium was removed, and the cells were washed three times with cold PBS and allowed to dry. Then, 400 µL of 69% HNO3 (Baseline grade nitric acid with PPB level reported impurities, Seastar Chemicals, Sidney, BC, Canada) was added to each well for 90 min to ensure complete digestion. […] Iridium 193 (^193Ir) was mixed online and introduced into the ICP-MS to check uptake efficiency and matrix interference. All ICP-MS parameters are described in Table S2 and elaborated in Method S3. The results represent an average of three different experiments run in triplicate (±SEM) and expressed as nmol/10^6 cells or µM/cell. Quantification of the cellular uptake of Pt was based on external standards (Certified Standard from Sigma-Aldrich, VIC, Australia) containing Internal standard Ir.
(§4) Method S3. Cellular Uptake of Platinum(II) and (IV) complexes
(§5) A final concentration of 10^6 cells/well of MDA−MB−231 and HT29 cells were seeded in 6-well plates and incubated overnight to adhere. The cells were then treated with a final concentration of 3 µM of either PtII or PtIV complexes. After 0, 0.5, 1, 3, 6, 12, 24 or 30 h, the medium was removed, and the cells were washed three times with cold PBS and allowed to dry. Then, 400 µL of 69% HNO3 (Baseline grade nitric acid with Instrument Quality Grade Nitric acid with ppb level reported impurities, Seastar Chemicals, Sidney, Canada) was added to each well for 90 mins to ensure complete digestion. The digests were then moved to trace -metal free 15 mL centrifuge tubes […]
(§6) concentration of 3.5-4%. Iridium 193 (193Ir), selected as internal standard, has similar first ionisation potential and mass to Platinum 195 (195Pt). A concentration of 50 ppb 193Ir in 2% HNO3 solution was chosen for the Perkin Elmer NexION® Inductively Coupled Plasma Mass Spectrometer (ICP-MS) as it produced a steady state signal intensity of 600-800K counts per second. Mixing and injection of sample and internal standard solution was carried out using an ESI 7 port Valve system (Elemental Scientific, USA). A high-quality Solvent Flex 2 stop pump with 0.38 mm ID tubing was used in conjunction with the ICP-MS’s Peristaltic pump set at 20 […]
(§7) standard both, at 0.25 mL/min) being 0.5 mL/min. The ICP-MS was tuned to high sensitivity settings to facilitate detection of low Pt concentrations in samples. This was done by adjusting the nebuliser gas flow between […] to achieve maximum Indium 115 intensity whilst maintaining an acceptable average oxide and doubly charged ratio of 1.64-2.24% and 1.17-1.69% respectively. The analysis method was set to peak hopping mode with a dwell time of […] and 45 sweeps through the mass spectrum per sample read. […]
(§8) peak integration time of 4500 milliseconds and enabled the collection of numerous data points for peak integration thereby increasing accuracy. The ICP-MS was tuned daily, and its performance optimised to a set of suppliers recommended settings. Analysis was only carried out when optimal oxide and doubly charged ratios with high ionic sensitivity was achieved. All ICP-MS parameters are described in Table S2. The results represent an average of three different experiments run in triplicates (± SEM) and expressed as nmol/106 cells or µM/cell. Quantification of the cellular uptake of Pt was based on external standards (Certified Standard from Sigma-Aldrich NSW, Australia) containing Internal standard Ir. […]

HT29 cells [4] = assay: Cellular uptake of Pt by ICP-MS; details: for Intracellular Concentration: HT29, 3 µM; for Intracellular/extracellular ratio: HT29, extracellular 3 µM
Protocol: as §3, §4, §5, §6, §7, §8

Compound: Cc1c(C)c2cccnc2c2ncccc12.N[C@H]1CCCC[C@@H]1N.O=[N+]([O-])[O-].O=[N+]([O-])[O-].[OH][Pt+2][OH] [Pt^IV56MESS(OH)2, [Pt(5,6-dimethyl-1,10-phenanthroline)(1S,2S-diaminocyclohexane)(dihydroxy)](NO3)2]
- Selective cytotoxicity index (SCI) (MCF−7; IC50 MCF10A/IC50 MCF−7): 3.61
- potency relative to cisplatin (MCF−7; MCF−7, 72 h): 24 fold
- IC50 (MCF−7; MCF−7, 72 h, mean ± SEM): 1.36 ± 1.47 µM
- potency relative to cisplatin (ADDP; ADDP, 72 h): 27 fold
- IC50 (ADDP; ADDP, 72 h, mean ± SEM): 4.17 ± 1.55 µM
- Selective cytotoxicity index (SCI) (ADDP; IC50 MCF10A/IC50 ADDP): 1.18
- Selective cytotoxicity index (SCI) (MDA−MB−231; IC50 MCF10A/IC50 MDA−MB−231): 6.92
- potency relative to cisplatin (MDA−MB−231; MDA−MB−231, 72 h): 18 fold
- IC50 (MDA−MB−231; MDA−MB−231, 72 h, mean ± SEM): 0.71 ± 1.22 µM
- MtMp (mitochondrial membrane potential) (MDA−MB−231 cells [1]; MDA−MB−231, 24 h): 190.39 RFU
- MtMp (mitochondrial membrane potential) (MDA−MB−231 cells [1]; MDA−MB−231, 48 h): 156.37 RFU
- MtMp (mitochondrial membrane potential) (MDA−MB−231 cells [1]; MDA−MB−231, 72 h): 92.94 RFU
- MtMp (mitochondrial membrane potential) (HT29 cells [2]; HT29, 24 h): 258.69 RFU
- MtMp (mitochondrial membrane potential) (HT29 cells [2]; HT29, 48 h): 172.39 RFU
- MtMp (mitochondrial membrane potential) (HT29 cells [2]; HT29, 72 h): 124.84 RFU
- Intracellular Concentration (MDA−MB−231 cells [3]; 0 h): 0.14 nmol/10^6 cells
- Intracellular Concentration (MDA−MB−231 cells [3]; 0.5 h): 0.11 nmol/10^6 cells
- Intracellular Concentration (MDA−MB−231 cells [3]; 1 h): 0.05 nmol/10^6 cells
- Intracellular Concentration (MDA−MB−231 cells [3]; 3 h): 0.25 nmol/10^6 cells
- Intracellular Concentration (MDA−MB−231 cells [3]; 6 h): 0.30 nmol/10^6 cells
- Intracellular Concentration (MDA−MB−231 cells [3]; 12 h): 1.16 nmol/10^6 cells
- Intracellular Concentration (MDA−MB−231 cells [3]; 24 h): 2.74 nmol/10^6 cells
- Intracellular Concentration (MDA−MB−231 cells [3]; 30 h): 4.19 nmol/10^6 cells
- Intracellular/extracellular ratio (MDA−MB−231 cells [3]; 0.5 h): 50.71
- Intracellular/extracellular ratio (MDA−MB−231 cells [3]; 1 h): 26.14
- Intracellular/extracellular ratio (MDA−MB−231 cells [3]; 3 h): 117.57
- Intracellular/extracellular ratio (MDA−MB−231 cells [3]; 6 h): 142.93
- Intracellular/extracellular ratio (MDA−MB−231 cells [3]; 12 h): 548.82
- Intracellular/extracellular ratio (MDA−MB−231 cells [3]; 24 h): 1293.81
- Intracellular Concentration (HT29 cells [4]; 0 h): 0.14 nmol/10^6 cells
- Intracellular Concentration (HT29 cells [4]; 0.5 h): 0.18 nmol/10^6 cells
- Intracellular Concentration (HT29 cells [4]; 1 h): 0.28 nmol/10^6 cells
- Intracellular Concentration (HT29 cells [4]; 3 h): 0.42 nmol/10^6 cells
- Intracellular Concentration (HT29 cells [4]; 6 h): 1.74 nmol/10^6 cells
- Intracellular Concentration (HT29 cells [4]; 12 h): 5.43 nmol/10^6 cells
- Intracellular Concentration (HT29 cells [4]; 24 h): 9.14 nmol/10^6 cells
- Intracellular Concentration (HT29 cells [4]; 30 h): 9.98 nmol/10^6 cells
- Intracellular/extracellular ratio (HT29 cells [4]; 0 h): 21.81
- Intracellular/extracellular ratio (HT29 cells [4]; 0.5 h): 28.52
- Intracellular/extracellular ratio (HT29 cells [4]; 1 h): 43.51
- Intracellular/extracellular ratio (HT29 cells [4]; 3 h): 66.77
- Intracellular/extracellular ratio (HT29 cells [4]; 6 h): 273.54
- Intracellular/extracellular ratio (HT29 cells [4]; 12 h): 854.01
- Intracellular/extracellular ratio (HT29 cells [4]; 24 h): 1435.74
- Intracellular/extracellular ratio (HT29 cells [4]; 30 h): 1568.28
